Reference: PubChem BioAssay AID248 (DTP/NCI, 2004)
Several values for one entry are separate records, joined by “and”; a condition that tells them apart may be missing. Equal values may be shown once. Inconclusive results and toxic doses are left out.

System: L1210 leukemia ip in BDF1 mice, survival T/C
Assay: NCI In Vivo Anticancer Drug Screen. Data for tumor model L1210 Leukemia (intraperitoneal) in B6D2F1 (BDF1) mice
Conditions: higher = longer survival
How it was run: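 In this screen, tumor-bearing mice given compound are compared to those given vehicle, and their survival values are reported as a treated-to-control quotient.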

[1] = endpoint: mean survival time, dose: 50.0 mg/kg/injection, schedule: Q01DX009 (ip), vehicle: saline
[2] = endpoint: mean survival time, dose: 100.0 mg/kg/injection, schedule: Q01DX001 (ip), vehicle: saline
[3] = endpoint: mean survival time, dose: 100.0 mg/kg/injection, schedule: Q01DX009 (ip), vehicle: saline
[4] = endpoint: mean survival time, dose: 200.0 mg/kg/injection, schedule: Q01DX001 (ip), vehicle: saline
[5] = endpoint: mean survival time, dose: 200.0 mg/kg/injection, schedule: Q01DX009 (ip), vehicle: saline
[6] = endpoint: mean survival time, dose: 400.0 mg/kg/injection, schedule: Q01DX001 (ip), vehicle: saline
[7] = endpoint: mean survival time, dose: 6.25 mg/kg/injection, schedule: Q01DX009 (ip), vehicle: saline
[8] = endpoint: mean survival time, dose: 100.0 mg/kg/injection, schedule: Q01DX009 (ip), vehicle: Klucel (hydroxypropylcellulose) (HPC)
[9] = endpoint: mean survival time, dose: 200.0 mg/kg/injection, schedule: Q01DX009 (ip), vehicle: Klucel (hydroxypropylcellulose) (HPC)
[10] = endpoint: mean survival time, dose: 400.0 mg/kg/injection, schedule: Q01DX009 (ip), vehicle: Klucel (hydroxypropylcellulose) (HPC)
[11] = endpoint: mean survival time, dose: 100.0 mg/kg/injection, schedule: Q04DX003 (ip), vehicle: saline
[12] = endpoint: mean survival time, dose: 200.0 mg/kg/injection, schedule: Q04DX003 (ip), vehicle: saline
[13] = endpoint: mean survival time, dose: 100.0 mg/kg/injection, schedule: Q04DX003 (ip), vehicle: saline with Tween-80
[14] = endpoint: mean survival time, dose: 200.0 mg/kg/injection, schedule: Q04DX003 (ip), vehicle: saline with Tween-80
[15] = endpoint: mean survival time, dose: 400.0 mg/kg/injection, schedule: Q04DX003 (ip), vehicle: saline with Tween-80
[16] = endpoint: mean survival time, dose: 100.0 mg/kg/injection, schedule: Q01DX009 (ip), vehicle: saline with Tween-80
[17] = endpoint: mean survival time, dose: 200.0 mg/kg/injection, schedule: Q01DX009 (ip), vehicle: saline with Tween-80
[18] = endpoint: mean survival time, dose: 12.5 mg/kg/injection, schedule: Q01DX009 (ip), vehicle: saline

Structure (SMILES): CCCCCCCCCCCCCCCCCCNC(=O)NCCN(C)c1ccccc1
- T/C (endpoint: mean survival time, dose: 100.0 mg/kg/injection, schedule: Q01DX009 (ip), vehicle: carboxymethylcellulose (CMC)): 87 % of control and 91 % of control
- T/C (endpoint: mean survival time, dose: 100.0 mg/kg/injection, schedule: Q04DX002 (ip), vehicle: Klucel (hydroxypropylcellulose) (HPC)): 108 % of control
- T/C (endpoint: mean survival time, dose: 100.0 mg/kg/injection, schedule: Q04DX002 (ip), vehicle: carboxymethylcellulose (CMC)): 95 % of control and 97 % of control
- T/C (endpoint: mean survival time, dose: 100.0 mg/kg/injection, schedule: Q04DX003 (ip), vehicle: carboxymethylcellulose (CMC)): 95 % of control
- T/C (endpoint: mean survival time, dose: 200.0 mg/kg/injection, schedule: Q01DX009 (ip), vehicle: carboxymethylcellulose (CMC)): 90 % of control
- T/C (endpoint: mean survival time, dose: 200.0 mg/kg/injection, schedule: Q04DX002 (ip), vehicle: Klucel (hydroxypropylcellulose) (HPC)): 112 % of control
- T/C (endpoint: mean survival time, dose: 200.0 mg/kg/injection, schedule: Q04DX002 (ip), vehicle: carboxymethylcellulose (CMC)): 93 % of control and 95 % of control
- T/C (endpoint: mean survival time, dose: 200.0 mg/kg/injection, schedule: Q04DX003 (ip), vehicle: carboxymethylcellulose (CMC)): 104 % of control
- T/C (endpoint: mean survival time, dose: 400.0 mg/kg/injection, schedule: Q04DX002 (ip), vehicle: Klucel (hydroxypropylcellulose) (HPC)): 102 % of control
- T/C (endpoint: mean survival time, dose: 400.0 mg/kg/injection, schedule: Q04DX002 (ip), vehicle: carboxymethylcellulose (CMC)): 95 % of control and 90 % of control
- T/C (endpoint: mean survival time, dose: 400.0 mg/kg/injection, schedule: Q04DX003 (ip), vehicle: carboxymethylcellulose (CMC)): 86 % of control

Structure (SMILES): COC(=O)CCC(=O)NCCc1cccc(OC)c1
- T/C (endpoint: mean survival time, dose: 100.0 mg/kg/injection, schedule: Q04DX003 (ip), vehicle: Klucel (hydroxypropylcellulose) (HPC)): 97 % of control
- T/C (endpoint: mean survival time, dose: 200.0 mg/kg/injection, schedule: Q04DX003 (ip), vehicle: Klucel (hydroxypropylcellulose) (HPC)): 98 % of control
- T/C (endpoint: mean survival time, dose: 400.0 mg/kg/injection, schedule: Q04DX003 (ip), vehicle: Klucel (hydroxypropylcellulose) (HPC)): 92 % of control

Structure (SMILES): CC(C)=CCC/C(C)=C/CN1C(=O)CN(C)C1=O
- T/C [1]: 98 % of control
- T/C [2]: 100 % of control
- T/C [3]: 101 % of control
- T/C [4]: 103 % of control
- T/C [5]: 98 % of control
- T/C [6]: 100 % of control

Structure (SMILES): OCC1OC(n2ccc3c([Se]Cc4ccccc4)ncnc32)C(O)C1O (stereo unspecified)
- T/C (endpoint: mean survival time, dose: 0.78 mg/kg/injection, schedule: Q01DX009 (ip), vehicle: saline): 101 % of control
- T/C (endpoint: mean survival time, dose: 1.56 mg/kg/injection, schedule: Q01DX009 (ip), vehicle: saline): 105 % of control
- T/C (endpoint: mean survival time, dose: 3.12 mg/kg/injection, schedule: Q01DX009 (ip), vehicle: saline): 109 % of control
- T/C [7]: 86 % of control
- T/C (endpoint: mean survival time, dose: 12.5 mg/kg/injection, schedule: Q01DX005 (ip), vehicle: saline): 100 % of control
- T/C (endpoint: mean survival time, dose: 25.0 mg/kg/injection, schedule: Q01DX005 (ip), vehicle: saline): 101 % of control

Structure (SMILES): CCOC(=O)c1cc(=O)[nH]c2cc(N)ccc12
- T/C [8]: 86 % of control
- T/C [9]: 89 % of control
- T/C [10]: 86 % of control

Structure (SMILES): Clc1ccc(C2CC3(CC(c4ccc(Cl)cc4)N2)SSC2(CC(c4ccc(Cl)cc4)NC(c4ccc(Cl)cc4)C2)S3)cc1 (stereo unspecified)
- T/C [8]: 98 % of control
- T/C [9]: 108 % of control
- T/C [10]: 98 % of control

Structure (SMILES): O=C(O)CCCC[P+](c1ccccc1)(c1ccccc1)c1ccccc1
- T/C [3]: 98 % of control
- T/C [11]: 105 % of control
- T/C [5]: 100 % of control
- T/C [12]: 107 % of control
- T/C (endpoint: mean survival time, dose: 400.0 mg/kg/injection, schedule: Q04DX003 (ip), vehicle: saline): 102 % of control

Structure (SMILES): CC1=C2C(=CO[C@H](C)[C@H]2C)C(=O)C(C(=O)O)=C1O
- T/C (endpoint: mean survival time, dose: 12.5 mg/kg/injection, schedule: Q04DX002 (ip), vehicle: saline with Tween-80): 88 % of control
- T/C (endpoint: mean survival time, dose: 25.0 mg/kg/injection, schedule: Q04DX002 (ip), vehicle: saline with Tween-80): 103 % of control
- T/C (endpoint: mean survival time, dose: 50.0 mg/kg/injection, schedule: Q04DX002 (ip), vehicle: saline with Tween-80): 102 % of control and 88 % of control

Structure (SMILES): CCN(CC)c1ccc2[nH]c3c(C(N)=O)cc(=O)c(=O)c=3oc2c1
- T/C (endpoint: median survival time, dose: 12.5 mg/kg/injection, schedule: Q01DX009 (ip), vehicle: saline with Tween-80): 101 % of control
- T/C (endpoint: median survival time, dose: 25.0 mg/kg/injection, schedule: Q01DX009 (ip), vehicle: saline with Tween-80): 120 % of control
- T/C (endpoint: median survival time, dose: 50.0 mg/kg/injection, schedule: Q01DX009 (ip), vehicle: saline with Tween-80): 113 % of control
- T/C (endpoint: median survival time, dose: 100.0 mg/kg/injection, schedule: Q01DX009 (ip), vehicle: saline with Tween-80): 111 % of control
- T/C (endpoint: median survival time, dose: 200.0 mg/kg/injection, schedule: Q01DX009 (ip), vehicle: saline with Tween-80): 98 % of control

Structure (SMILES): Cn1nc(N)c2nccnc21
- T/C [1]: 98 % of control
- T/C [3]: 104 % of control
- T/C (endpoint: mean survival time, dose: 100.0 mg/kg/injection, schedule: Q04DX003 (ip), vehicle: alcohol): 100 % of control
- T/C (endpoint: mean survival time, dose: 200.0 mg/kg/injection, schedule: Q04DX003 (ip), vehicle: alcohol): 98 % of control

Structure (SMILES): CN(Cc1ccc(Cl)cc1)C(=O)Nc1cccc(C(F)(F)F)c1
- T/C (endpoint: mean survival time, dose: 25.0 mg/kg/injection, schedule: Q01DX009 (ip), vehicle: Klucel (hydroxypropylcellulose) (HPC)): 96 % of control
- T/C (endpoint: mean survival time, dose: 50.0 mg/kg/injection, schedule: Q01DX009 (ip), vehicle: Klucel (hydroxypropylcellulose) (HPC)): 100 % of control
- T/C [8]: 100 % of control and 90 % of control
- T/C [10]: 88 % of control

Structure (SMILES): CNC(Cc1ccc(OCc2ccccc2)cc1)C(=O)NC(CO)CC(C)C (stereo unspecified)
- T/C [13]: 102 % of control
- T/C [14]: 96 % of control
- T/C [15]: 105 % of control

Structure (SMILES): CCOC(=O)NC(NC(=O)OCC)c1ccc(Cl)c(Cl)c1
- T/C (endpoint: mean survival time, dose: 100.0 mg/kg/injection, schedule: Q01DX001 (ip), vehicle: carboxymethylcellulose (CMC)): 98 % of control
- T/C (endpoint: mean survival time, dose: 200.0 mg/kg/injection, schedule: Q01DX001 (ip), vehicle: carboxymethylcellulose (CMC)): 98 % of control
- T/C (endpoint: mean survival time, dose: 400.0 mg/kg/injection, schedule: Q01DX001 (ip), vehicle: carboxymethylcellulose (CMC)): 93 % of control

Structure (SMILES): CCN(CC)C(=O)CCc1ccccc1
- T/C [16]: 108 % of control
- T/C [17]: 100 % of control

Structure (SMILES): COc1nc(=S)n2[nH]cnc2n1
- T/C [18]: 89 % of control
- T/C (endpoint: mean survival time, dose: 25.0 mg/kg/injection, schedule: Q01DX009 (ip), vehicle: saline): 94 % of control
- T/C [1]: 109 % of control
- T/C (endpoint: mean survival time, dose: 50.0 mg/kg/injection, schedule: Q04DX003 (ip), vehicle: saline): 102 % of control
- T/C [11]: 91 % of control
- T/C [12]: 92 % of control

Structure (SMILES): CC(=O)Oc1ccc(OC(C)=O)c2c1C(=O)CCCC2=O
- T/C [16]: 101 % of control
- T/C [13]: 91 % of control
- T/C [17]: 93 % of control
- T/C [14]: 91 % of control
- T/C (endpoint: mean survival time, dose: 400.0 mg/kg/injection, schedule: Q01DX009 (ip), vehicle: saline with Tween-80): 96 % of control
- T/C [15]: 96 % of control

Structure (SMILES): COc1ccc([N+](=O)[O-])cc1NC(=O)Nc1ccc(C(=O)OCC(C)C)cc1
- T/C [8]: 100 % of control
- T/C [9]: 100 % of control
- T/C [10]: 95 % of control

Structure (SMILES): COCCCNP(=S)(OC)OC
- T/C (endpoint: mean survival time, dose: 100.0 mg/kg/injection, schedule: Q01DX001 (ip), vehicle: other): 98 % of control
- T/C (endpoint: mean survival time, dose: 100.0 mg/kg/injection, schedule: Q04DX003 (ip), vehicle: other): 98 % of control
- T/C (endpoint: mean survival time, dose: 200.0 mg/kg/injection, schedule: Q01DX001 (ip), vehicle: other): 105 % of control
- T/C (endpoint: mean survival time, dose: 200.0 mg/kg/injection, schedule: Q04DX003 (ip), vehicle: other): 98 % of control
- T/C (endpoint: mean survival time, dose: 400.0 mg/kg/injection, schedule: Q01DX001 (ip), vehicle: other): 94 % of control
- T/C (endpoint: mean survival time, dose: 400.0 mg/kg/injection, schedule: Q04DX003 (ip), vehicle: other): 101 % of control

Structure (SMILES): CCOC(=O)/C(C#N)=C\c1ccc(N(C)C)cc1
- T/C (endpoint: mean survival time, dose: 100.0 mg/kg/injection, schedule: Q01DX Z (ip), vehicle: methylcellulose (MC)): 106 % of control
- T/C (endpoint: mean survival time, dose: 200.0 mg/kg/injection, schedule: Q01DX Z (ip), vehicle: methylcellulose (MC)): 108 % of control

Structure (SMILES): O=C(C(=Nc1ccc(Br)cc1)C(Nc1ccc(Br)cc1)C(=O)c1ccccc1)c1ccccc1 (stereo unspecified)
- T/C [2]: 96 % of control
- T/C [4]: 91 % of control
- T/C [6]: 94 % of control

Structure (SMILES): Cc1cc(C(=O)NC(CCC(=O)O)C(=O)O)cc(C)c1N(C)Cc1cnc2nc(N)nc(N)c2n1 (stereo unspecified)
- T/C (endpoint: mean survival time, dose: 3.13 mg/kg/injection, schedule: Q01DX009 (ip), vehicle: saline): 158 % of control
- T/C [7]: 161 % of control
- T/C [18]: 153 % of control and 165 % of control
- T/C (endpoint: mean survival time, dose: 50.0 mg/kg/injection, schedule: Q01DX009 (ip), vehicle: sodium bicarbonate): 101 % of control
